Experiment: in vitro
Details: human, hela cells, % viability

SMILES | viability at 28.5 h, 10 µM [%]
CC(Oc1nccnc1OCc1ccc(Cl)c(Cl)c1)c1ccncc1 (centres unmarked) [CBK161609] | 84.1
Clc1ccc(COc2nccnc2OCc2cccnc2N2CCOCC2)cc1Cl [CBK161610] | 88.8
CCCc1ccc(N(C)C(=O)c2ccc(C(C)(C)C)cc2)cc1 [CBK161612] | 103
CCCc1ccc(N(C)C(=O)c2ccc(OCC)cc2)cc1 [CBK161615] | 107
CCCc1ccc(N(C)C(=O)c2ccc(OC(F)(F)F)cc2)cc1 [CBK161616] | 91.4
CCCCOc1ccc(C(=O)N(C)c2ccc(CCC)cc2)cc1 [CBK161619] | 95.9
FC(F)(F)c1cnc(Oc2ccc(-n3ccnc3)cc2)c(Cl)c1 [CBK161625] | 90.9
COC(=O)CCc1ccc(Oc2ncc(C(F)(F)F)cc2Cl)cc1 [CBK161628] | 111
CC(N)(Cc1ccc(Oc2ncc(C(F)(F)F)cc2Cl)cc1)C(=O)O (centres unmarked) [CBK161647] | 91.9
O=C(O)c1ccccc1C(=O)c1ccc(Oc2ncc(C(F)(F)F)cc2Cl)cc1 [CBK161648] | 106
CC(=O)N1CCN(c2ccc(Oc3ncc(C(F)(F)F)cc3Cl)cc2)CC1 [CBK161650] | 104
O=C(O)Cc1ccc(Oc2ncc(C(F)(F)F)cc2Cl)cc1 [CBK161657] | 104
CC(C)(C)OC(=O)Nc1ccc(Oc2ncc(C(F)(F)F)cc2Cl)cc1 [CBK161658] | 99.2
O=C(Nc1nccs1)c1ccc2[nH]ccc2c1 [CBK161731] | 90.5
CS(=O)(=O)Nc1ccc(CNC(=O)c2ccccc2Nc2cccc(C(F)(F)F)c2)cc1 [CBK161732] | 85.5
O=C(NCc1ccc2c(c1)OCO2)c1ccc2[nH]ccc2c1 [CBK161750] | 106
CC(C)c1ccc(CNC(=O)c2ccc3[nH]ccc3c2)cc1 [CBK161754] | 96.1
CC(C)(C)OC(=O)Nc1ccc2c(ccn2CCN2CCOCC2)c1 [CBK161767] | 95
CC(C)(C)OC(=O)N1CCC(COc2ccc(-c3ccncc3)cn2)CC1 [CBK161777] | 91.8
Clc1ccc(COc2nccnc2OCCOc2ccccc2)cc1Cl [CBK161853] | 92.5
COc1ccc(S(=O)(=O)N(Cc2c(F)cccc2F)C2CCN(C)CC2)cc1 [CBK161910T] | 109

SMILES | viability at 28.5 h, 10 µM [%]
CC(C)(C)CN1CCC(Oc2nccnc2OCc2ccc(Br)cc2F)CC1 [CBK161946] | 116
CC(C)Oc1ccc(C(=O)N2CCC(COc3ccc(-c4ccc(S(C)(=O)=O)cc4)cn3)CC2)nc1 [CBK161989] | 86.8
CSCCCNC(=O)c1cnn2c(C)c(Cc3ccccc3C)c(C)nc12 [CBK162028] | 96.7
Cc1nc2c(C(=O)NCCCOC(C)C)cnn2c(C)c1Cc1cccc(Cl)c1 [CBK162043] | 97.1
CCOCCCNC(=O)c1cnn2c(C)c(Cc3cccc(OC)c3)c(C)nc12 [CBK162056] | 113
CCOCCCNC(=O)c1cnn2c(C)c(Cc3cccc(C#N)c3)c(C)nc12 [CBK162081] | 101
Cc1nc2c(C(=O)NCC(F)(F)F)cnn2c(C)c1Cc1cccc(C#N)c1 [CBK162093] | 91.6
COCCNC(=O)c1cnn2c(C)c(Cc3cccc(C#N)c3)c(C)nc12 [CBK162096] | 94.6
COCC1CCCN1C(=O)c1cnn2c(C)c(Cc3cccc(C#N)c3)c(C)nc12 (centres unmarked) [CBK162099] | 99.6
Cc1nc2c(C(=O)NCCCN3CCCC3=O)cnn2c(C)c1Cc1cccc(F)c1 [CBK162104] | 101
Cc1nc2c(C(=O)NCC(F)(F)F)cnn2c(C)c1Cc1cccc(F)c1 [CBK162117] | 112
CCOCCCNC(=O)c1cnn2c(C)c(CC)c(C)nc12 [CBK162129] | 93.7
CCc1c(C)nc2c(C(=O)NC(CC)COC)cnn2c1C (centres unmarked) [CBK162133] | 97.5
CCc1c(C)nc2c(C(=O)N3CCOCC3)cnn2c1C [CBK162134] | 99.3
CCc1c(C)nc2c(C(=O)NCCSC)cnn2c1C [CBK162147] | 97.2
CCc1c(C)nc2c(C(=O)NCCCOC)cnn2c1C [CBK162149] | 82.2
CCc1c(C)nc2c(C(=O)NCc3cc(C)on3)cnn2c1C [CBK162150] | 82.5
CSCCCNC(=O)c1cnn2c(C)c(Cc3cccnc3)c(C)nc12 [CBK162164] | 104
CNC(=O)c1cnn2c(C)c(Cc3cccnc3)c(C)nc12 [CBK162165] | 78.2
COc1ccc(Cc2c(C)nc3c(C(=O)NCC4COc5ccccc5O4)cnn3c2C)cc1 (centres unmarked) [CBK162179] | 102
COCC1CCCN1C(=O)c1cnn2c(C)c(Cc3ccc(OC)cc3)c(C)nc12 (centres unmarked) [CBK162190] | 107

SMILES | viability at 28.5 h, 10 µM [%]
COc1ccc(Cc2c(C)nc3c(C(=O)NCCSC)cnn3c2C)cc1 [CBK162191] | 111
Cc1nc2c(C(=O)N3CCNC(=O)C3)cnn2c(C)c1Cc1ccccc1 [CBK162197] | 90.3
Cc1ccc(C(=O)N2CCC3(CC2)CC(=O)c2cc(Br)ccc2O3)cc1C [CBK162264] | 105
Cc1ccc(C(=O)CN2CCC3(CC2)CC(=O)c2cc(Br)ccc2O3)cc1 [CBK162266] | 91.2
Cc1cnc(CNC(=O)N2CCN(c3cc(C(F)(F)F)ccn3)CC2)cn1 [CBK162320] | 107
O=C(NCC1CCCCC1)N1CCN(c2cc(C(F)(F)F)ccn2)CC1 [CBK162323] | 103
COc1ccc(CCNC(=O)N2CCN(c3cc(C(F)(F)F)ccn3)CC2)cc1OC [CBK162330] | 105
CC(NC(=O)N1CCN(c2cc(C(F)(F)F)ccn2)CC1)c1ccccc1 (centres unmarked) [CBK162350] | 91.7
CCOC(=O)N1CCC(NC(=O)N2CCN(c3cc(C(F)(F)F)ccn3)CC2)CC1 [CBK162353] | 103
CN(Cc1ccc(-c2ccc(S(C)(=O)=O)cc2)nc1)C1CCNCC1 [CBK163942] | 99.1
CC(C)(C)OC(=O)N1CCC(Oc2nccnc2OCc2ccc(Cl)cc2F)CC1 [CBK163968] | 104
CN(Cc1ccc(-c2ccc(S(C)(=O)=O)cc2)nc1)C1CCN(C(=O)CC(F)(F)F)CC1 [CBK164098T] | 99.3
COc1ccc(CCC(=O)N2CCC(N(C)Cc3ccc(-c4ccc(S(C)(=O)=O)cc4)nc3)CC2)cc1Cl [CBK164102T] | 86.6
CN(Cc1ccc(-c2ccc(S(C)(=O)=O)cc2)nc1)C1CCN(C(=O)Cc2cccc(C(F)(F)F)c2)CC1 [CBK164104T] | 90.2
CC(=O)NCc1cccc(-c2cc(COc3ccc4c(c3)OCO4)cnc2-c2ccc(Cl)cc2)c1 [CBK164106A] | 105
CCc1ccc(CNC(=O)Cn2nnc(-c3ccc(C(C)N4CCC(C)CC4)cc3)n2)cc1 (centres unmarked) [CBK164199T] | 97.5
COc1cc(OC)cc(C(=O)N2CCC3(CC2)CC(=O)c2cc(C)c(C)cc2O3)c1 [CBK164201] | 83.3
CC(=O)NCc1cccc(-c2cc(C(=O)NCCc3cccc(OC(F)(F)F)c3)cnc2-c2ccc(Cl)cc2)c1 [CBK164414] | 84.7
CC(=O)NCc1cccc(-c2cc(C(=O)NCC3CN(Cc4ccccc4)CCO3)cnc2-c2ccc(Cl)cc2)c1 (centres unmarked) [CBK164416T] | 88.5
Cc1ccc(CNC(=O)Cn2cc(-c3ccc(CN4CCC(C)CC4)cc3)nn2)cc1 [CBK164706] | 87.1
CC1CCN(Cc2ccc(-c3cn(CC(=O)NCc4ccc(Br)cc4)nn3)cc2)CC1 [CBK164709] | 93

SMILES | viability at 28.5 h, 10 µM [%]
CC(C)CCNCc1ccc(-c2cn(CC(=O)NCCc3ccccc3)nn2)cc1 [CBK164740] | 95.9
Cc1nc2c(C(=O)NC3CCOCC3)cnn2c(C)c1Cc1cccc(Br)c1 [CBK165011] | 92.3
Cn1cnc(S(=O)(=O)N(c2ccc(C(C)(C)C)cc2)C2CCNCC2)c1 [CBK165046T] | 87.5
CC(=O)Nc1ccc(S(=O)(=O)N(c2ccc(C(C)(C)C)cc2)C2CCNCC2)cc1 [CBK165062T] | 90.4
Cc1cc(S(=O)(=O)N(c2ccc(C(C)(C)C)cc2)C2CCNCC2)c(C)s1 [CBK165075T] | 105
O=S(=O)(CC(F)(F)F)N(c1ccccc1)C1CCNCC1 [CBK165093T] | 92.6
O=C1CCCN1c1ccc(S(=O)(=O)N(c2ccccc2)C2CCNCC2)cc1 [CBK165122T] | 109
CC(C)CCN(Cc1ccc(-c2ccc(S(C)(=O)=O)cc2)nc1)C1CCN(C(=O)OC(C)(C)C)CC1 [CBK165138] | 83.4
COCCNC(=O)c1cnn2c(C)c(Cc3ccccc3C(F)(F)F)c(C)nc12 [CBK165210] | 95.7
CC(C)COC(=O)N1CCC(N(C)Cc2ccc(-c3ccc(S(C)(=O)=O)cc3)nc2)CC1 [CBK165259T] | 90.4
CC(C)OC(=O)N1CCC(N(C)Cc2ccc(-c3ccc(S(C)(=O)=O)cc3)nc2)CC1 [CBK165261T] | 121
COc1ccc(S(=O)(=O)N(Cc2cc(F)cc(F)c2)C2CCNCC2)cc1 [CBK165292T] | 89.8
CC1CCN(Cc2ccc(-c3cn(CC(=O)NCc4ccc(Br)cc4F)nn3)cc2)CC1 [CBK165756C] | 91.1
CC(C)(C)OC(=O)N1CCC(N2CCc3cc(-c4ccc(S(C)(=O)=O)cc4)ccc3C2)CC1 [CBK165796] | 82.7
Cc1cccc(C(=O)N2CCC(N(C)Cc3ccc(-c4ccc(S(C)(=O)=O)cc4)nc3)CC2)n1 [CBK165937T] | 81.5
CN(Cc1ccc(-c2ccc(S(C)(=O)=O)cc2)nc1)C1CCN(C(=O)c2cc(Cl)ccc2Cl)CC1 [CBK165943T] | 84.5
CC1CCN(Cc2ccc(-c3cn(CC(=O)NCc4ccc(Br)cc4)cn3)cc2)CC1 [CBK165969] | 104
CC(C)CCNCc1ccc(-c2cn(CC(=O)NCc3ccc(C(F)(F)F)cc3)cn2)cc1 [CBK165976] | 91.7
N#Cc1ccc(-c2cncc(NC3CCC(O)CC3)n2)cc1 (centres unmarked) [CBK166007T] | 88.2
COc1ccc2c(c1)OC1(CCN(C(=O)c3cc(OC)c(C)c(OC)c3)CC1)NC2=O [CBK166244] | 82.6

— publication PMC12040169 (PLOS Biology, 2025)
